Patent US20030104965A1, “Laundry sanitizer containing partially halogenated hydantoins” (Lonza Inc., priority 2001, published 2003)

Tests used:
[1] = test system: Klebsiella pneumoniae ATCC 4352; assay: Simulated in-use laundry sanitation test (Petrocci and Clarke); format: cell-based; settings: pH 7.0, Example 6
Description: A simulated “in-use” laundry sanitation test, as described in Petrocci and Clarke, supra, was conducted to evaluate the activity of the samples listed in Table 3 below.
The test was performed as follows. Fabric swatches were inoculated and dried with ˜20,000,000 cfu test organism. (Staphylococcus aureus ATCC 6538, Klebsiella pneumoniae ATCC 4352). The swatches were exposed to a sample dilution for 10 minutes followed by neutralization and enumeration of survivors. The percent reduction of bacteria was calculated for the fabric swatches and wash water.
The sample dilutions were prepared as follows. Tide® powder and MCDMH were dissolved separately in water and mixed together. Then the mixture was adjusted to 150 ppm hard water. The Tide® powder mixture contained about 1.8 g of Tide® powder per liter of mixture.
The procedure in Example 5 was repeated with Klebsiella pneumonia ATCC 4352 only. The Tide® liquid sample was prepared by the same procedure as the Tide® powder sample described in Example 5. The Tide® liquid mixture contained about 1.8 g of Tide® liquid per liter of mixture.

K. pneumoniae = assay: Petrocci & Clarke antimicrobial laundry additive test, cotton fabric, Tide powder plus sanitizer; format: cell-based; settings: 30 ppm sanitizer (expressed as Cl2), mixture with Tide powder; for Percent Reduction of K. pneumonia on Fabric: cotton fabric
Description: Bioefficacy studies were performed using cotton fabric samples to compare monochloro dimethyl hydantoin (MCDMH) to trichloroisocyanuric acid (TCCA) and sodium dichloroisocyanurate (DCCA), two chlorine bleaches. Mixtures of Tide® powder, available from Procter and Gamble of Cincinnati, Ohio, and the sanitizers specified in Table 1 were prepared and thereafter dissolved in water. The sanitizers were completely dissolved in the water before testing. The mixtures were tested according to the known Petrocci & Clarke method (A. Petrocci and P. Clarke, Proposed Test Method for Antimicrobial Laundry Additives, Journal of the Association of Official Analytical Chemists, 52(4), 836-842 (1969)) against K. pneumoniae. The percent reduction of K. pneumonia on the fabric and on the wash water was determined.

| Compound | % Reduction in 10 Minutes - Kiebsiella Fabric ([1]; 5 ppm (expressed as Cl2)) | % Reduction in 10 Minutes - Kiebsiella Water ([1]; 5 ppm (expressed as Cl2)) | % Reduction in 10 Minutes - Kiebsiella Fabric ([1]; 10 ppm (expressed as Cl2)) | % Reduction in 10 Minutes - Kiebsiella Water ([1]; 10 ppm (expressed as Cl2)) | % Reduction in 10 Minutes - Kiebsiella Fabric ([1]; 20 ppm (expressed as Cl2)) | % Reduction in 10 Minutes - Kiebsiella Water ([1]; 20 ppm (expressed as Cl2)) | Percent Reduction of K. pneumonia in Wash Water (K. pneumoniae) | Percent Reduction of K. pneumonia on Fabric (K. pneumoniae) |
| --- | --- | --- | --- | --- | --- | --- | --- | --- |
| monochloro-5,5-dimethyl hydantoin [MCDMH] | 99.99% | 100% | 100% | 100% | 100% | 100% | 99.76% | 99.60% |
| O=c1nc([O-])n(Cl)c(=O)n1Cl.[Na+] [DCCA, sodium dichloroisocyanurate] | – | – | – | – | – | – | 87.50% | 96.36% |
| O=c1n(Cl)c(=O)n(Cl)c(=O)n1Cl [TCCA, trichloroisocyanuric acid] | – | – | – | – | – | – | 96.38% | 97.09% |
